Measured values from PMC4765733 (Journal of medicinal chemistry, 2015).
pIC50: −log10 of the molar value.

Key:
HIV-1LAI = assay: Antiviral MTT assay, MT-2 cells exposed to HIV-1LAI; type: cell-based; settings: Human immunodeficiency virus 1, MT2, read-out: IC50 (antiviral activity)
[1] = system: HIV-1ERS104pre (wild type); assay: Antiviral p24 Gag assay in PHA-PBMs, wild-type HIV-1ERS104pre; type: cell-based

Row | SMILES | pIC50 (HIV-1LAI) | EC50 fold better than APV [1] [fold]
1 | CC(C)CN(C[C@@H](O)[C@H](Cc1ccccc1)NC(=O)O[C@H]1CO[C@H]2OCC[C@H]21)S(=O)(=O)c1ccc(N)cc1 [Darunavir] | 8.52 | –
2 | COc1ccc(S(=O)(=O)N(CC(C)C)C[C@@H](O)[C@H](Cc2cccc(-c3ccccc3OC)c2)NC(=O)O[C@H]2CO[C@H]3OCC[C@H]32)cc1 [Inhibitor 21e, (3R,3aS,6aR)-hexahydrofuro[2,3-b]furan-3-yl-((2S,3R)-3-hydroxy-4-(N-isobutyl-4-methoxyphenylsulfonamido)-1-(2'-methoxy-[1,1'-biphenyl]-3-yl)butan-2-yl)carbamate] | – | ~10
